Test results: the supplement of paper PMC10307832

Legend:
Experiment in all cases: relative viability (nuclei count vs DMSO), 5 days (fraction); higher = more cells survive
Erlotinib + Vorinostat = compound: C#Cc1cccc(Nc2ncnc3cc(OCCOC)c(OCCOC)cc23)c1 [Erlotinib] + O=C(CCCCCCC(=O)Nc1ccccc1)NO [Vorinostat] (partner 1 µM)
Procedure, shortened: (§1)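 Dosing by pin tool came one day after lung cancer cell lines were seeded in 1536-well plates, using either one drug or a fixed anchor-drug dose plus five library-drug doses (not always all listed) in √10 steps. After 5 days, nuclei were counted on 4× images. Relative viability is treated-well nuclei count divided by vehicle-well nuclei count, and values are medians of duplicate plates.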

Erlotinib + Bortezomib = compound: C#Cc1cccc(Nc2ncnc3cc(OCCOC)c(OCCOC)cc23)c1 [Erlotinib] + CC(C)C[C@H](NC(=O)[C@H](Cc1ccccc1)NC(=O)c1cnccn1)B(O)O [Bortezomib] (partner 0.002 µM)
Procedure, shortened: as §1

AT9283 + Decitabine = compound: O=C(Nc1c[nH]nc1-c1nc2ccc(CN3CCOCC3)cc2[nH]1)NC1CC1 [AT9283] + Nc1ncn([C@H]2C[C@H](O)[C@@H](CO)O2)c(=O)n1 [Decitabine] (partner 2 µM)
Procedure, shortened: as §1

Erlotinib + Olaparib = compound: C#Cc1cccc(Nc2ncnc3cc(OCCOC)c(OCCOC)cc23)c1 [Erlotinib] + O=C(c1cc(Cc2n[nH]c(=O)c3ccccc23)ccc1F)N1CCN(C(=O)C2CC2)CC1 [Olaparib] (partner 8 µM)
Procedure, shortened: as §1

AT9283 + OSI-027 = compound: O=C(Nc1c[nH]nc1-c1nc2ccc(CN3CCOCC3)cc2[nH]1)NC1CC1 [AT9283] + COc1cccc2cc(-c3nc([C@H]4CC[C@H](C(=O)O)CC4)n4ncnc(N)c34)[nH]c12 [OSI-027] (partner 0.5 µM)
Procedure, shortened: as §1

Row | Cell Line | relative viability (Erlotinib + Vorinostat; first compound 0.02 µM) | relative viability (Erlotinib + Vorinostat; first compound 0.2 µM) | relative viability (Erlotinib + Vorinostat; first compound 0.6325 µM) | relative viability (Erlotinib + Vorinostat; first compound 2 µM) | relative viability (Erlotinib + Bortezomib; first compound 0.02 µM) | relative viability (Erlotinib + Bortezomib; first compound 0.2 µM) | relative viability (Erlotinib + Bortezomib; first compound 0.6325 µM) | relative viability (Erlotinib + Bortezomib; first compound 2 µM) | relative viability (AT9283 + Decitabine; first compound 0.003 µM) | relative viability (AT9283 + Decitabine; first compound 0.03 µM) | relative viability (AT9283 + Decitabine; first compound 0.09487 µM) | relative viability (AT9283 + Decitabine; first compound 0.3 µM) | relative viability (Erlotinib + Olaparib; first compound 0.02 µM) | relative viability (Erlotinib + Olaparib; first compound 0.2 µM) | relative viability (Erlotinib + Olaparib; first compound 0.6325 µM) | relative viability (Erlotinib + Olaparib; first compound 2 µM) | relative viability (AT9283 + OSI-027; first compound 0.003 µM) | relative viability (AT9283 + OSI-027; first compound 0.03 µM) | relative viability (AT9283 + OSI-027; first compound 0.09487 µM) | relative viability (AT9283 + OSI-027; first compound 0.3 µM)
1 | NCI-H2023 | 0.754 | 0.475 | 0.645 | 0.47 | 0.949 | 0.816 | 1.14 | 0.789 | 0.202 | 0.202 | 0.127 | 0.0969 | 0.46 | 0.43 | 0.54 | 0.432 | 0.389 | 0.456 | 0.148 | 0.104
2 | NCI-H1975 | 0.722 | 0.726 | 0.701 | 0.58 | 0.381 | 0.355 | 0.451 | 0.303 | 0.403 | 0.432 | 0.398 | 0.34 | 0.818 | 0.712 | 0.888 | 0.695 | 0.726 | 0.706 | 0.671 | 0.344
3 | EKVX | 0.716 | 0.372 | 0.323 | 0.259 | 1.13 | 0.513 | 0.323 | 0.17 | 0.38 | 0.246 | 0.234 | 0.215 | 0.839 | 0.476 | 0.385 | 0.183 | 0.661 | 0.655 | 0.503 | 0.26
4 | COR-L23 | 0.583 | 0.423 | 0.489 | 0.362 | 1.12 | 1.15 | 1.23 | 0.839 | 0.385 | 0.304 | 0.169 | 0.168 | 0.38 | 0.309 | 0.442 | 0.308 | 0.755 | 0.658 | 0.245 | 0.153
5 | NCI-H647 | 0.735 | 0.485 | 0.556 | 0.565 | 1.05 | 0.961 | 1.36 | 0.795 | 0.427 | 0.401 | 0.205 | 0.127 | 0.556 | 0.541 | 0.594 | 0.243 | 0.782 | 0.524 | 0.173 | 0.132
6 | NCI-H1651 | 0.533 | 0.541 | 0.564 | 0.462 | 0.912 | 0.909 | 0.918 | 0.882 | 0.371 | 0.516 | 0.428 | 0.318 | 0.171 | 0.188 | 0.173 | 0.145 | 0.753 | 0.714 | 0.568 | 0.334
7 | NCI-H1993 | 0.811 | 0.724 | 0.633 | 0.461 | 1.01 | 0.698 | 0.809 | 0.739 | 0.596 | 0.453 | 0.442 | 0.456 | 0.91 | 0.606 | 0.748 | 0.658 | 0.545 | 0.528 | 0.487 | 0.486
8 | HCC-827 | 0.228 | 0.186 | 0.121 | 0.132 | 0.526 | 0.343 | 0.276 | 0.35 | 0.235 | 0.234 | 0.258 | 0.214 | 0.243 | 0.147 | 0.149 | 0.139 | 0.694 | 0.647 | 0.597 | 0.181
9 | SK-LU-1 | 1.01 | 0.729 | 0.899 | 0.718 | 1.07 | 1.55 | 1.61 | 0.984 | 0.62 | 0.423 | 0.415 | 0.407 | 0.536 | 0.551 | 0.403 | 0.455 | 0.366 | 0.276 | 0.22 | 0.165
10 | BEN | 0.66 | 0.523 | 0.637 | 0.547 | 0.644 | 0.864 | 1.28 | 0.886 | 0.52 | 0.557 | 0.347 | 0.347 | 1.3 | 1.06 | 1.14 | 1.03 | 0.31 | 0.296 | 0.24 | 0.219
11 | ABC-1 | – | 1.13 | 1.34 | 0.985 | 0.25 | 0.355 | 0.328 | 0.287 | 1.3 | 0.513 | 0.346 | 0.346 | – | 1.01 | 1.03 | 0.769 | 0.436 | 0.245 | 0.213 | 0.201
12 | H3255 | 0.705 | 0.817 | 0.628 | 0.206 | 0.99 | 0.758 | 0.244 | 0.179 | 0.577 | 0.556 | 0.352 | 0.222 | 0.661 | 0.469 | 0.387 | 0.242 | 0.683 | 0.659 | 0.548 | 0.306
13 | NCI-H1437 | – | 0.873 | 0.818 | 0.667 | 0.482 | 0.499 | 0.57 | 0.393 | 0.47 | 0.599 | 0.426 | 0.306 | 0.638 | 0.646 | 0.607 | 0.612 | 0.933 | 0.848 | 0.669 | 0.206
14 | HCC-44 | 1.21 | 1.13 | 1.13 | 1.16 | 0.99 | – | 0.982 | 0.899 | 0.702 | 0.969 | 0.749 | 0.871 | 0.94 | 0.984 | 1.05 | 0.947 | 0.466 | 0.555 | 0.185 | 0.21
15 | NCI-H23 | 0.704 | 0.502 | 0.666 | 0.485 | 0.915 | – | 1.32 | 0.917 | 0.26 | 0.293 | 0.228 | 0.246 | 0.388 | 0.261 | 0.289 | 0.294 | 0.666 | 0.674 | 0.344 | 0.281
16 | ChaGo-K-1 | 0.784 | 0.721 | 0.82 | 0.74 | 0.847 | 1.09 | 1.23 | 0.749 | 0.483 | 0.523 | 0.26 | 0.222 | 0.426 | 0.466 | 0.391 | 0.402 | 0.54 | 0.575 | 0.279 | 0.189
